In paper PMC3938192 (ACS chemical biology, 2013):
Residue numbers refer to the chain shown, from its start.

How the values were obtained:
Type in all cases: cell-based
Venus-Pkd1-WT = target: T1, Venus-Pkd1-WT (Mus musculus, UniProt Q62101); experiment: Puncta formation of Venus-Pkd1-WT in neurons; details: 1 µM, one hour of inhibitor treatment
T1 sequence (Q62101 1-918): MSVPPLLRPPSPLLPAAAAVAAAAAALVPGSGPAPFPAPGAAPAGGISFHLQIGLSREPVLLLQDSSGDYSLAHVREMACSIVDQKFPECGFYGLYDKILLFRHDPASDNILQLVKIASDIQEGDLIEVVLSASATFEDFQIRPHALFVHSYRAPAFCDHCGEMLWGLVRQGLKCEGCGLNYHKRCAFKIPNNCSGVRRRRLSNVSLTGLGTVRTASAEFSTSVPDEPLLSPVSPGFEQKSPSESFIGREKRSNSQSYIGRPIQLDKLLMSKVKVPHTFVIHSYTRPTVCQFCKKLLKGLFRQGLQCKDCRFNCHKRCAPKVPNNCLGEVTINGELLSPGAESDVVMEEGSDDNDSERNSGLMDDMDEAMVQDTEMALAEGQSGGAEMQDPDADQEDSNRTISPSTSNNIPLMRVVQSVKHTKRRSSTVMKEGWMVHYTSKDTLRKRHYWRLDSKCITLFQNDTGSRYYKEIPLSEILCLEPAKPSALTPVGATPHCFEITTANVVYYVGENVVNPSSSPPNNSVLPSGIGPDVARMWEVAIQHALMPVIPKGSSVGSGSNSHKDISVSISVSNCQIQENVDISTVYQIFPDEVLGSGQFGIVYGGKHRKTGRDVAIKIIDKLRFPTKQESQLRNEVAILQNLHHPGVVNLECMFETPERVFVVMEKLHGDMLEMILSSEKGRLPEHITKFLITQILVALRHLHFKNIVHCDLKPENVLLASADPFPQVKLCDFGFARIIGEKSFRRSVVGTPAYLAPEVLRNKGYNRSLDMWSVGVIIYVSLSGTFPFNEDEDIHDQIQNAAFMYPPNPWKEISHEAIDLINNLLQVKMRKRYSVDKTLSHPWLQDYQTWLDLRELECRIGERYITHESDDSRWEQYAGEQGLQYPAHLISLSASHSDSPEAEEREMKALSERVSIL

Pkd1-WT = target: T2, Pkd1-WT (Mus musculus, UniProt Q62101); experiment: Pkd1-WT autophosphorylation in transfected HEK 293T cells; details: 1 µM
T2 sequence (Q62101 1-918): T1 sequence (Q62101 1-918)

Venus-Pkd1-AS2 = target: T3, Venus-Pkd1-AS2 (Mus musculus, UniProt Q62101, M665A); experiment: Puncta formation of Venus-Pkd1-AS2 in neurons; details: 1 µM, one hour of inhibitor treatment
T3 sequence (Q62101 1-918 M665A): T1 sequence (Q62101 1-918) with M665A

Pkd1-AS2 (M665A) = target: T4, Pkd1-AS2 (M665A) (Mus musculus, UniProt Q62101, M665A); experiment: Pkd1-AS2 autophosphorylation in transfected HEK 293T cells; details: 1 µM
T4 sequence (Q62101 1-918 M665A): T1 sequence (Q62101 1-918) with M665A

CC(C)(C)n1nc(-c2cccc3ccccc23)c2c(N)ncnc21 [1NA-PP1]
puncta formation, Venus-Pkd1-WT neurons (Venus-Pkd1-WT): unaffected | effect on autophosphorylation by Pkd1-WT (Pkd1-WT): but not the wild type kinase | puncta formation, Venus-Pkd1-AS2 neurons (Venus-Pkd1-AS2): forming discrete puncta | effect on autophosphorylation by Pkd1-AS2 (Pkd1-AS2 (M665A)): completely abrogates autophosphorylation
